The test system of the assay is Bovine cardiac myofibrils. Briefly: In vitro model of dose-dependent myofibril ATPase modulation (AC1.4, pyruvate kinase/lactate dehydrogenase-coupled ATPase assay at pCa25). The conditions noted are these: concentration at which ATPase activity was 1.4-fold higher than the bottom of the dose curve, mean of a minimum of two independent tests. The format is biochemical. The gist of the method:
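Detergent-skinned bovine cardiac myofibrils (typically 0.25-1.0 mg/ml) in Ca-buffered (EGTA/CaCl2) PK/LDH-coupled ATPase assay: 12 mM K-PIPES pH 6.80, 2 mM MgCl2, 1 mM ATP, 1 mM DTT, 0.5 mM NADH, 1.5 mM PEP. Hydrolysis followed at 340 nm; dose response fit to 4-parameter equation; AC1.4 is mean of ≥2 tests.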

In turn, `O=C(NCc1ccc(C(F)(F)F)cc1)[C@H]1CCCN1C(=O)[C@H]1CCCN(S(=O)(=O)N2CC(c3cccc(C(F)(F)F)c3)C2)C1` [Example 771, N-(4-(trifluoromethyl)benzyl)-1-(((3S)-1-((3-(3-(trifluoromethyl)phenyl)-1-azetidinyl)sulfonyl)-3-piperidinyl)carbonyl)-D-prolinamide] displayed an AC1.4 of 8.1415 µM.
In turn, `CC[C@@H](NC(=O)[C@H]1CCCN1C(=O)c1cccc(S(C)(=O)=O)c1)c1ccc(Cl)c(F)c1` [Example 772, N-((1R)-1-(4-chloro-3-fluorophenyl)propyl)-1-(3-(methylsulfonyl)benzoyl)-D-prolinamide] gave an AC1.4 of 8.175 µM.
In turn, `O=C(NCc1ccc(C(F)(F)F)cc1)[C@H]1CCCN1C(=O)[C@H]1CCCN(S(=O)(=O)N2CCC(F)(F)C2)C1` [Example 773, 1-(((3S)-1-((3,3-difluoro-1-pyrrolidinyl)sulfonyl)-3-piperidinyl)carbonyl)-N-(4-(trifluoromethyl)benzyl)-D-prolinamide] showed an AC1.4 of 8.21 µM.
Consider `Cc1nnc(CNS(=O)(=O)N2CCC[C@H](C(=O)N3CCC[C@@H]3C(=O)NCc3ccc(C(F)(F)F)cc3)C2)o1` [Example 774, 1-(((3S)-1-(((5-methyl-1,3,4-oxadiazol-2-yl)methyl)sulfamoyl)-3-piperidinyl)carbonyl)-N-(4-(trifluoromethyl)benzyl)-D-prolinamide], for which the AC1.4 came to 8.3045 µM.
As for `COC(=O)[C@H]1C[C@H](S(=O)(=O)N2CCC[C@H](C(=O)N3CCC[C@@H]3C(=O)NCc3ccc(C(F)(F)F)cc3)C2)C1` [Example 775, methyltrans-3-(((3S)-3-(((2R)-2-((4-(trifluoromethyl)benzyl)carbamoyl)-1-pyrrolidinyl)carbonyl)-1-piperidinyl)sulfonyl)cyclobutanecarboxylate], the figure is 8.31 µM.
Consider `COc1ccc([C@H](NC(=O)[C@H]2CCCN2C(=O)[C@H]2CCCN(S(=O)(=O)N3CC(C#N)C3)C2)C(F)(F)F)cc1F` [Example 776, 1-(((3S)-1-((3-cyano-1-azetidinyl)sulfonyl)-3-piperidinyl)carbonyl)-N-((1S)-2,2,2-trifluoro-1-(3-fluoro-4-methoxyphenyl)ethyl)-D-prolinamide], for which the AC1.4 was found to be 8.3695 µM.
On to `NS(=O)(=O)c1cc(C(=O)N2CCC[C@@H]2C(=O)N[C@@H](c2ccc(C(F)(F)F)cc2F)C2CC2)c(Cl)cc1F` [Example 777, 1-(2-chloro-4-fluoro-5-sulfamoylbenzoyl)-N-((R)-cyclopropyl(2-fluoro-4-(trifluoromethyl)phenyl)methyl)-D-prolinamide], for which the AC1.4 came out at 8.3805 µM.
As for `CS(=O)(=O)c1cc(C(=O)N2[C@@H](C(=O)N[C@@H](c3cc(F)c(Cl)cc3F)C3CC3)C[C@@H]3C[C@@H]32)ccn1` [Example 779, (1S,3R,5S)-N-((R)-(4-chloro-2,5-difluorophenyl)(cyclopropyl)methyl)-2-((2-(methylsulfonyl)-4-pyridinyl)carbonyl)-2-azabicyclo[3.1.0]hexane-3-carboxamide], the figure is 8.423 µM; as for `O=C(NCc1ccc(C(F)(F)F)cc1)[C@H]1CCCN1C(=O)[C@H]1CCCN(S(=O)(=O)C2CCC2)C1` [Example 780, (R)-1-((S)-1-(cyclobutylsulfonyl)piperidine-3-carbonyl)-N-(4-(trifluoromethyl)benzyl)pyrrolidine-2-carboxamide], 8.4235 µM.
The compound `N#CC1CN(S(=O)(=O)N2CCC[C@H](C(=O)N3CCC[C@@H]3C(=O)NCc3cccc(OC(F)F)c3)C2)C1` [Example 781, 1-(((3S)-1-((3-cyano-1-azetidinyl)sulfonyl)-3-piperidinyl)carbonyl)-N-(3-(difluoromethoxy)benzyl)-D-prolinamide] showed an AC1.4 of 8.59 µM.
Turning to `CC(=O)NC1CN(S(=O)(=O)N2CCC[C@H](C(=O)N3CCC[C@@H]3C(=O)NCc3ccc(C(F)(F)F)cc3)C2)C1` [Example 782, 1-(((3S)-1-((3-(acetylamino)-1-azetidinyl)sulfonyl)-3-piperidinyl)carbonyl)-N-(4-(trifluoromethyl)benzyl)-D-prolinamide], the AC1.4 is 8.6395 µM.
`COc1ccc2c(c1)[C@H](NC(=O)[C@H]1CCCN1C(=O)[C@H]1CCCN(S(=O)(=O)N3CC(C#N)C3)C1)CCO2` [Example 783, 1-(((3S)-1-((3-cyano-1-azetidinyl)sulfonyl)-3-piperidinyl)carbonyl)-N-((4R)-6-methoxy-3,4-dihydro-2H-chromen-4-yl)-D-prolinamide] had an AC1.4 of 8.7825 µM.
As for `COc1cccc(C(=O)N2CCC[C@@H]2C(=O)N[C@@H](c2ccc(C(F)(F)F)cc2F)C2CC2)c1` [Example 784, N-((R)-cyclopropyl(2-fluoro-4-(trifluoromethyl)phenyl)methyl)-1-(3-methoxybenzoyl)-D-prolinamide], the figure is 8.852 µM; as for `C[C@@H](NC(=O)[C@H]1CCCN1C(=O)c1cccc(S(=O)(=O)N2CC(C#N)C2)c1)c1ccccc1` [Example 785, 1-((3-((3-cyano-1-azetidinyl)sulfonyl)phenyl)carbonyl)-N-((1R)-1-phenylethyl)-D-prolinamide], 8.8883 µM; as for `CCc1ccnc(C(=O)N2[C@@H](C(=O)N[C@@H](c3ccc(C(F)(F)F)cc3F)C3COC3)C[C@H]3C[C@H]32)c1` [Example 786, (1R,3R,5R)-2-((4-ethyl-2-pyridinyl)carbonyl)-N-((R)-(2-fluoro-4-(trifluoromethyl)phenyl)(3-oxetanyl)methyl)-2-azabicyclo[3.1.0]hexane-3-carboxamide], 8.9175 µM.
Compound `O=C(NCc1ccc(C(F)(F)F)cc1)[C@H]1CCCN1C(=O)[C@H]1CCCN(S(=O)(=O)N2CC(CC(F)(F)F)C2)C1` [Example 787, 1-(((3S)-1-((3-(2,2,2-trifluoroethyl)-1-azetidinyl)sulfonyl)-3-piperidinyl)carbonyl)-N-(4-(trifluoromethyl)benzyl)-D-prolinamide] yielded an AC1.4 of 8.931 µM.
Consider `COCC1CN(S(=O)(=O)N2CCC[C@H](C(=O)N3CCC[C@@H]3C(=O)NCc3ccc(C(F)(F)F)cc3)C2)C1` [Example 788, 1-(((3S)-1-((3-(methoxymethyl)-1-azetidinyl)sulfonyl)-3-piperidinyl)carbonyl)-N-(4-(trifluoromethyl)benzyl)-D-prolinamide], for which the AC1.4 worked out at 8.9395 µM.
Regarding `O=C(N[C@@H](c1ccc(C(F)(F)F)cc1F)C1COC1)[C@H]1C[C@H]2C[C@H]2N1C(=O)c1cccc(C(F)(F)F)n1` [Example 789, (1R,3R,5R)-N-((R)-(2-fluoro-4-(trifluoromethyl)phenyl)(3-oxetanyl)methyl)-2-((6-(trifluoromethyl)-2-pyridinyl)carbonyl)-2-azabicyclo[3.1.0]hexane-3-carboxamide], the AC1.4 was 8.9635 µM.
For `N#CC1CN(S(=O)(=O)N2CCN[C@H](C(=O)N3CCC[C@@H]3C(=O)NCc3cc(Cl)cc(Cl)c3)C2)C1` [Example 790, 1-(((2S)-4-((3-cyano-1-azetidinyl)sulfonyl)-2-piperazinyl)carbonyl)-N-(3,5-dichlorobenzyl)-D-prolinamide], the AC1.4 was found to be 8.9725 µM.
As to `Cc1ccc([C@H](NC(=O)[C@H]2C[C@H](F)CN2C(=O)c2cccc(S(C)(=O)=O)c2)C2CC2)cc1F` [Example 792, (4S)-N-((R)-cyclopropyl(3-fluoro-4-methyIphenyl)methyl)-4-fluoro-1-(3-(methylsulfonyl)benzoyl)-D-prolinamide], the AC1.4 turned out to be 9.071 µM.
As for `CCS(=O)(=O)c1cccc(C(=O)N2CCC[C@@H]2C(=O)NCc2ccc(C(F)(F)F)cc2)c1` [Example 793, 1-(3-(ethylsulfonyl)benzoyl)-N-(4-(trifluoromethyl)benzyl)-D-prolinamide], the figure is 9.129 µM; as for `CC(C)(O)c1cccc(C(=O)N2CCC[C@@H]2C(=O)N[C@@H](c2ccc(C(F)(F)F)cc2F)C2CC2)c1` [Example 794, N-((R)-cyclopropyl(2-fluoro-4-(trifluoromethyl)phenyl)methyl)-1-(3-(2-hydroxy-2-propanyl)benzoyl)-D-prolinamide], 9.2425 µM; as for `CS(=O)(=O)c1cc(C(=O)N2[C@@H](C(=O)N[C@@H](c3ccc(Cl)c(F)c3)C3CC3)C[C@H]3C[C@H]32)ccn1` [Example 795, (1R,3R,5R)-N-((R)-(4-chloro-3-fluorophenyl)(cyclopropyl)methyl)-2-((2-(methylsulfonyl)-4-pyridinyl)carbonyl)-2-azabicyclo[3.1.0]hexane-3-carboxamide], 9.3255 µM.
`CC(=O)N1CC(F)(c2cccc(C(=O)N3CCC[C@@H]3C(=O)N[C@@H](c3ccc(C(F)(F)F)cc3F)C3CC3)c2)C1` [Example 796, 1-(3-(l-acetyl-3-fluoro-3-azetidinyl)benzoyl)-N-((R)-cyclopropyl(2-fluoro-4-(trifluoromethyl)phenyl)methyl)-D-prolinamide]: the AC1.4 is 9.426 µM.
The compound `Cc1cncc(C(=O)N2[C@@H](C(=O)N[C@@H](c3cc(F)c(C(F)(F)F)cc3F)C3CC3)C[C@H]3C[C@H]32)c1` [Example 797, (1R,3R,5R)-N-((R)-cyclopropyl(2,5-difluoro-4-(trifluoromethyl)phenyl)methyl)-2-((5-methyl-3-pyridinyl)carbonyl)-2-azabicyclo[3.1.0]hexane-3-carboxamide] came in with an AC1.4 of 9.447 µM.
`O=C(NCc1ccc(C(F)(F)F)nc1)[C@H]1CCCCN1C(=O)c1cccc(S(=O)(=O)N2CC(F)(F)C2)c1` [Example 798, (2R)-1-((3-((3,3-difluoro-1-azetidinyl)sulfonyl)phenyl)carbonyl)-N-((6-(trifluoromethyl)-3-pyridinyl)methyl)-2-piperidinecarboxamide]: the AC1.4 was 9.448 µM.
In turn, `N#CC1CN(S(=O)(=O)N2CCC[C@H](C(=O)N3CCC[C@@H]3C(=O)NC3CCC3C(F)(F)F)C2)C1` (stereo partly drawn) [Example 799, (2R)-1-((S)-1-((3-cyanoazetidin-1-yl)sulfonyl)piperidine-3-carbonyl)-N-(2-(trifluoromethyl)cyclobutyl)pyrrolidine-2-carboxamide] showed an AC1.4 of 9.4535 µM.

(Values after patent US11780826B2 (Amgen Inc., priority 2017, dated 2023).)
